In PMC10454396 (International Journal of Molecular Sciences, 2023):
Where two headings read alike, the source gives them in different places.

Legend:
[1] = assay type: in vitro ADME; conditions: mouse plasma
Protocol: To determine stability in plasma, a similar setup as for the determination of metabolic stability was applied using pooled mouse, human or rat plasma (Neo Biotech, Nanterre, France). Samples were taken by mixing aliquots with four volumes of ice cold acetonitrile containing internal standard (12.5 nM diphenhydramine). The plasma stability of procain, propantheline and diltiazem were determined in parallel to confirm the enzymatic activity.

[2] = Plasma protein binding (RED), mouse plasma; assay type: in vitro ADME; conditions: CD-1, mouse, pooled plasma, pH 7.4, mouse plasma
Protocol: Plasma protein binding was determined using the Rapid Equilibrium Dialysis (RED) system (Thermo Fisher Scientific, Waltham, MA, USA). The compound was diluted in pooled murine (CD-1)/human or Wistar rat plasma (Neo Biotech, Nanterre, France) to 10 µM and added to the respective chamber according to the manufacturer’s protocol, followed by addition of PBS pH 7.4 to the opposite chamber. Samples were taken immediately after addition to the plate as well as after 2, 4 and 5 h by mixing 10 µL with 80 µL ice-cold acetonitrile containing 12.5 nM diphenhydramine as internal standard, followed by addition of 10 µL plasma to samples taken from PBS and vice versa. Samples were stored on ice until the end of the incubation and precipitated protein was removed by centrifugation (15 min, 4 °C, 4000× g, 2 centrifugation steps). Concentration of the remaining test compound at the different time points was analyzed by HPLC-MS/MS (TSQ Altis Plus, Thermo Fisher, Dreieich, Germany). The amount of compound bound to protein was calculated using the equation PPB [%] = 100 − 100 × (amount in buffer chamber/amount in plasma chamber).

## C/C(=C\[C@H](C)CCCCC(=O)O)[C@@H]1O[C@@H]2C=C[C@H]1OC(=O)\C=C/C=C\C=C\[C@H]1O[C@@H]3C[C@H]1O[C@@H](/C=C/C[C@H]1O[C@H](C[C@H](O)[C@H]1C)[C@@H](O)[C@@H](O)/C=C/CC/C=C/C2)[C@@H]3C [sorangicin A]
[1]
  plasma concentration after 4 h incubation: below the limit of detection
[2]; 10 µM, read-out: PPB (converted)
  fraction unbound at 10 µM: 0.121
[2]; read-out: free fraction
  fraction unbound at 10 µM: > 0.1
